{"source": "patent US8636985B2", "about": "“Functional formulation in chewing gum” (priority 2010, dated 2014)", "origin": "cited, not measured here", "details": "several experimental models"}
{"molecule": "CC1=C(CO)C(=O)O[C@@H]([C@@H](C)[C@H]2CC[C@H]3[C@@H]4C[C@H]5O[C@]56[C@@H](O)C=CC(=O)[C@]6(C)[C@H]4CC[C@]23C)C1", "note": "[Withaferin A]", "values": [{"measurement": "anti-inflammatory and antiarthritic properties", "value": "anti-inflammatory and antiarthritic properties"}]}
